# According to paper PMC9889419 (Pharmacological Reports, 2022):
# “And” between values parts separate entries of the source, which are not always exact repeats. Equal values may be shown once. Where a name gives a salt, the structure may show the parent alone. Marks after values point to notes of the source that are not given here.
# What was measured:
# NIE-115 cells = assay: Patch-clamp (sodium currents); type: cell-based; conditions: 100 µM
# rats [1] = type: in vivo; conditions: ip
# rats [2] = assay: Rotarod / TOX (neurotoxicity); conditions: for Rotarod TD50: rats
# MTLE mice = MTLE mice acute screen evaluation; type: in vivo
# rats [3] = conditions: ip, […]
# [4] = Approximate solubility tests; type: physicochemical; conditions: pH 9.9 borate buffer
# Method: Borate buffer pH = 9.9 was selected as one of standard buffers at this pH range. […] Initially, three organic modifiers were considered: ethanol, dimethyl sulfoxide (DMSO) and 1,4-dioxane. […] Finally, dioxane was selected due to its higher boiling point, which reduced the risk of evaporation during a prolonged experiment. During the experiment, three degradation products were observed (tR = 13 min, tR = 15 min and tR = 17 min).
# hNav1.5 sodium channel = target: T1, hNav1.5 sodium channel (Homo sapiens, UniProt Q14524); assay: Nav channel electrophysiology (IonWorks Quattro); type: cell-based
# T1 construct: host or cells: CHO cells
# guinea pigs = assay: Infiltration anesthesia (intradermal wheal test); type: in vivo
# STZ-treated mice = assay: Streptozotocin-induced diabetic neuropathy, hot plate test; type: in vivo
# Method: Induction of diabetes. To induce diabetes the mice were injected with a single ip streptozotocin (STZ, Sigma-Aldrich, Germany) dose (200 mg/kg) dissolved in 0.1 N citrate buffer. Blood glucose levels were measured 1 h before and repeatedly 1, 2 and 3 weeks after STZ injection using a blood glucose monitoring system (AccuChek Active, Roche, France). Blood samples (5 µL) for the measurement of glucose concentration were obtained from the mouse tail vein. The animals were defined as diabetic when their blood glucose concentration exceeded 300 mg/dL and only those mice were used as diabetic mice in further tests. The body weight of mice was monitored 1 h before and 21 days after STZ injection.
# Assessment of heat hyperalgesia in STZ-treated mice—hot plate test. Thermal hyperalgesia was assessed using the hot plate apparatus (Bioseb, France). In this test, after the establishment of pre-drug latency to pain reaction for each animal, the mice were treated with the tested compound and 30 min later they were placed into a glass cylinder on a hot plate set at 55 °C and observed for a nocifensive response (hind paw licking or jumping). The cut-off time was established at 30 s.
# mice [5] = assay: Formalin test (first screening); type: in vivo; conditions: ip
# hNav1.6 sodium channel = target: T2, hNav1.6 sodium channel (Homo sapiens, UniProt Q9UQD0); assay: Nav channel electrophysiology (IonWorks Quattro); type: cell-based
# T2 construct: host or cells: CHO cells
# α1 (non-selective) = assay: Radioligand binding; parameters: species or system rat
# mice [6] = assay: Tail immersion test (local anesthetic activity); type: in vivo
# mice [7] = assay: Capsaicin test; type: in vivo
# Method: Neurogenic pain—capsaicin test. In this test compound dissolved in saline was tested at doses 5, 10, and 30 mg/kg. Compound was administered ip and 30 min later 1.6 μg of capsaicin (Sigma-Aldrich, Germany) dissolved in 20 μL of a mixture containing 0.9% saline and ethanol (5% of the final volume) was injected intraplantarly in the ventral surface of the right-hind paw of each mouse. The animals were observed individually for 5 min following capsaicin injection. In all experimental groups, the amount of time spent on licking, biting, or lifting the injected paw was recorded with a chronometer and was considered as an indicator of nociception.
# T1 sequence (Q14524 whole entry): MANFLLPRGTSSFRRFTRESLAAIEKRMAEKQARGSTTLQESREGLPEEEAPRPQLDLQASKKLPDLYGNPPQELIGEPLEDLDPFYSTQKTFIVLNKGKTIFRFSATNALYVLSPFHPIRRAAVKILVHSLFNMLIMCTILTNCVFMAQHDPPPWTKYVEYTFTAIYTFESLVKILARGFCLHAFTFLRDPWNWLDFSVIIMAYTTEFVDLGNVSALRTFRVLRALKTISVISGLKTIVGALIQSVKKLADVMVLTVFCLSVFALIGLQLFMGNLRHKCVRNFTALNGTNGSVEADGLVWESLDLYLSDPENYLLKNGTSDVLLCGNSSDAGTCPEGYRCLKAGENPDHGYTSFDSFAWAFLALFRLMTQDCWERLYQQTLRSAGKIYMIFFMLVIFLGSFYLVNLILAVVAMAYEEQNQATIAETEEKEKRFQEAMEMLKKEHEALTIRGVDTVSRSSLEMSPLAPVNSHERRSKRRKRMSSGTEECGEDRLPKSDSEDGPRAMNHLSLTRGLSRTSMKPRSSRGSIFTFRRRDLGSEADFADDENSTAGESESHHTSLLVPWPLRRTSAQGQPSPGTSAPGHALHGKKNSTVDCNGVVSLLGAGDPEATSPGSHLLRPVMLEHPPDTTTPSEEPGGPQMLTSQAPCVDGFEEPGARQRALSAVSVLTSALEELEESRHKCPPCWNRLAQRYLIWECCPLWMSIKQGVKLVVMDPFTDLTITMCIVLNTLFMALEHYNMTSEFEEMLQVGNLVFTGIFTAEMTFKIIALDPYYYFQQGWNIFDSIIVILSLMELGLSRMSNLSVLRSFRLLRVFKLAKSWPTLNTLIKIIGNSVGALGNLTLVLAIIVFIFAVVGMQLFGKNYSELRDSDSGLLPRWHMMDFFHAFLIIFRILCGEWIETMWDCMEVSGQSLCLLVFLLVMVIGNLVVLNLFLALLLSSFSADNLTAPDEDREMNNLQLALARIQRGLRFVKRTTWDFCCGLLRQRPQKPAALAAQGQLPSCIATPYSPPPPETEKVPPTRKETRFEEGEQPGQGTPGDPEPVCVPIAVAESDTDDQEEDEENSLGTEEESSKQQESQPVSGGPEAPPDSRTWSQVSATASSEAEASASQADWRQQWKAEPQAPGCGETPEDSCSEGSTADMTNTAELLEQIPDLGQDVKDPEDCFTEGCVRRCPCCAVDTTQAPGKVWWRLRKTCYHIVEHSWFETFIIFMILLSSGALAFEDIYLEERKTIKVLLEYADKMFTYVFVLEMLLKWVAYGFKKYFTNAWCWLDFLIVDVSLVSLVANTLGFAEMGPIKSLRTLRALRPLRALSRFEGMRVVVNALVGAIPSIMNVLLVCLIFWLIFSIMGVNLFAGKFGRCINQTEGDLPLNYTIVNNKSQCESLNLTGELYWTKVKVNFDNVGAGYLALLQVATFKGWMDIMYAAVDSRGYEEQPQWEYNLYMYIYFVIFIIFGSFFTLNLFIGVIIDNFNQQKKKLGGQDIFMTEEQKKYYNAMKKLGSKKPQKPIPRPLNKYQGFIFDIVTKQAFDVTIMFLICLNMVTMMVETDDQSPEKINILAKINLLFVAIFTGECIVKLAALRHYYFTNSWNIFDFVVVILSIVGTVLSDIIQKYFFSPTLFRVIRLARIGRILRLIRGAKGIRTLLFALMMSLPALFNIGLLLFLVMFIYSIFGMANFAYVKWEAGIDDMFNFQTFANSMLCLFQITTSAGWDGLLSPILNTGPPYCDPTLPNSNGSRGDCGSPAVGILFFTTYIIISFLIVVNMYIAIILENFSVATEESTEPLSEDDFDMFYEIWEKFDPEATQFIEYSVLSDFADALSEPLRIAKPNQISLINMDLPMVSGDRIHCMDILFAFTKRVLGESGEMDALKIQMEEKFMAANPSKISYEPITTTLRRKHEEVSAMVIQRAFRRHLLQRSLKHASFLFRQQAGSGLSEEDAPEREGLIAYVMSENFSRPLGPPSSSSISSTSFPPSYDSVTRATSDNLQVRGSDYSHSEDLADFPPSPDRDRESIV
# T2 sequence (Q9UQD0 whole entry): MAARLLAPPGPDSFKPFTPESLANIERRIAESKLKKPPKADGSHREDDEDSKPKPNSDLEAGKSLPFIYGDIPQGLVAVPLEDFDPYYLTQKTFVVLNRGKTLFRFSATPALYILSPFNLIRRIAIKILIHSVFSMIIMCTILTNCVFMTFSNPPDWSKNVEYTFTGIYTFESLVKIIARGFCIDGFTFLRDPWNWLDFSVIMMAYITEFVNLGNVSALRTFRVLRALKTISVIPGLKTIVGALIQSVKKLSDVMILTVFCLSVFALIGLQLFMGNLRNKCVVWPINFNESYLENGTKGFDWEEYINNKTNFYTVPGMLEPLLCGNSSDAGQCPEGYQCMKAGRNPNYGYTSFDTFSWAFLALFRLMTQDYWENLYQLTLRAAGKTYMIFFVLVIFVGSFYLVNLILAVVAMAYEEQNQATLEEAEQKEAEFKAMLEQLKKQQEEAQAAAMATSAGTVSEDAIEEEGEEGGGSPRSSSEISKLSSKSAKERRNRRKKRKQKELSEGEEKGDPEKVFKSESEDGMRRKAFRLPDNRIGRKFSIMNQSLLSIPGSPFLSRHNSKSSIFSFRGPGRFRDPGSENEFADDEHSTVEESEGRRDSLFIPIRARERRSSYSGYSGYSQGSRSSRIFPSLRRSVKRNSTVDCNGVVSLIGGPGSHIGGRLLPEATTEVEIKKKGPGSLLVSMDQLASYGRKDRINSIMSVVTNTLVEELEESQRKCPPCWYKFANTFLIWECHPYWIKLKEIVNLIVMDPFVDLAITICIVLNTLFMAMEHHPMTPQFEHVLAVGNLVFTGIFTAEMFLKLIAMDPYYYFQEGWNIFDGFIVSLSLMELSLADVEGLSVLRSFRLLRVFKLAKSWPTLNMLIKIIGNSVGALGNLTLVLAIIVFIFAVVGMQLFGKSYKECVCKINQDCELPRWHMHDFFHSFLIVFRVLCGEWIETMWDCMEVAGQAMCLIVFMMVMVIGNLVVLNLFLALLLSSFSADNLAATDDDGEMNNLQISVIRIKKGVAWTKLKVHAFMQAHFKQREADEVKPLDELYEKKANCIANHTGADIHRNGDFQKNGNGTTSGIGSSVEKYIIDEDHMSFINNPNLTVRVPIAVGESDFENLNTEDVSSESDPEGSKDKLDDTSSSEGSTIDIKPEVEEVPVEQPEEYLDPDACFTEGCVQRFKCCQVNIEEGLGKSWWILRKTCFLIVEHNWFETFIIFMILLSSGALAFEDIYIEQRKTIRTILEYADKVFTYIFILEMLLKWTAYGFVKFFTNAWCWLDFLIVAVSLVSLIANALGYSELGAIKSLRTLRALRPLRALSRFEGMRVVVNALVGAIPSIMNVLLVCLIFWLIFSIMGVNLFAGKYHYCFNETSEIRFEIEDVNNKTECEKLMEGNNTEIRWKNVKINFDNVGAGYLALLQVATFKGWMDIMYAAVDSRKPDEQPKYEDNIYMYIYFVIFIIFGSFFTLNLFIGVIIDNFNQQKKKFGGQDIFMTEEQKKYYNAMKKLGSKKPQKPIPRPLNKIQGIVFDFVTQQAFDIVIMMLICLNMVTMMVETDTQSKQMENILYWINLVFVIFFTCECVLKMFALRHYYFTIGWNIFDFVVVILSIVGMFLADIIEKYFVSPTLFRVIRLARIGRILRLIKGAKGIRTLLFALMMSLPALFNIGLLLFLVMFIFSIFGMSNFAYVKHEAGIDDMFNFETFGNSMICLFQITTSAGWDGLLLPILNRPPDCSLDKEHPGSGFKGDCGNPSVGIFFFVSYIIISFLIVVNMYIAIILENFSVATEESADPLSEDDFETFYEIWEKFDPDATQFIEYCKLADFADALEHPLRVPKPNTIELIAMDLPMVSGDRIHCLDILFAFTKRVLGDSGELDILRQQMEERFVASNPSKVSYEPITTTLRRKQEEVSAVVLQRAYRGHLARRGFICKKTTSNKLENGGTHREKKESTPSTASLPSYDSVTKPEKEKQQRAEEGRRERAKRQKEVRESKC
smiles,measurement,setting,value
"CCC(CO)NCCOc1c(C)cccc1Cl (stereo not drawn) [Compound 4, R,S-2-((2-(2-chloro-6-methylphenoxy)ethyl)amino)butan-1-ol]",% of control +/- SEM,NIE-115 cells; holding potential -60 mV,26 +/- 3%
same,% of control +/- SEM,NIE-115 cells; holding potential -90 mV,55 +/- 5%
same,TD97,rats [1],40.53 mg/kg
same,Pilocarpine-induced status epilepticus prevention: result,rats [1]; at 40 mg/kg,no activity
same,Rotarod TD50,"rats [2]; ip, listed as 348014",< 50 mg/kg
same,Rotarod TD50,rats [2]; po,> 240 mg/kg
same,TOX TD50,"rats [2]; report of 16-Aug-2004 (rats, po)",> 60 mg/kg
same,MTLE mice acute screen: % of baseline,"MTLE mice; at 30 mg/kg, recording period 5–25 min",80.8 ± 16.8 % of baseline
same,MTLE mice acute screen TPE,"MTLE mice; mice, ip",0.25 h
same,LTG-resistant amygdala seizures: active at,rats [3],15 mg/kg
"CCC(CO)NCCOc1c(C)cccc1Cl (stereo not drawn) [KM-408, R,S-2-((2-(2-chloro-6-methylphenoxy)ethyl)amino)butan-1-ol hydrochloride]",solubility,[4]; 20% dioxane,dissolved fully
same,solubility,[4]; 20% ethanol,dissolved fully
same,solubility,[4]; DMSO above 30%,full solubility has not been achieved
same,IC50,hNav1.5 sodium channel; 10 Hz,4.85 µM
same,IC50,hNav1.5 sodium channel; Inactivated state,< 10 µM
same,IC50,hNav1.5 sodium channel; Tonic block,47.9 µM
same,Inhibition of pain reaction,"guinea pigs; 0.125%, 30 min",33.3* %
same,Inhibition of pain reaction,"guinea pigs; 0.125%, 60 min",38.9* %
same,Inhibition of pain reaction,"guinea pigs; 0.125%, 120 min",33.3* %
same,Inhibition of pain reaction,"guinea pigs; 0.5%, 30 min",93.3*** %
same,Inhibition of pain reaction,"guinea pigs; 0.5%, 60 min",81.2*** %
same,Inhibition of pain reaction,"guinea pigs; 0.5%, 120 min",66.7*** %
same,Inhibition of pain reaction,"guinea pigs; 0.5%, 240 min",20.0%
same,Inhibition of pain reaction,"guinea pigs; […], 30 min",81.2*** %
same,Inhibition of pain reaction,"guinea pigs; […], 60 min",64.7** %
same,Inhibition of pain reaction,"guinea pigs; […], 120 min",70.6*** %
same,Inhibition of pain reaction,"guinea pigs; […], 240 min",33.3* %
same,infiltration anesthesia: active at,guinea pigs; guinea pigs,0.125%
same,effect in hot plate test,"STZ-treated mice; 1 mg/kg, STZ-treated mice",not effective
same,latency to pain reaction,"STZ-treated mice; 10 mg/kg, STZ-treated mice",15.8 ± 2.2 s
same,prolongation of latency vs. diabetic control,"STZ-treated mice; 10 mg/kg, STZ-treated mice",63%
same,latency to pain reaction,"STZ-treated mice; 30 mg/kg, STZ-treated mice",21.6 ± 2.2 s
same,prolongation of latency vs. diabetic control,"STZ-treated mice; 30 mg/kg, STZ-treated mice",123%
same,STZ-induced pain (hot plate): active at,"STZ-treated mice; mice, ip",10 mg/kg
same,% of effect (II phase),mice [5]; 30.0 mg/kg,26.6%
same,Time of licking paw ± SEM (I phase),mice [5]; 30.0 mg/kg,60.6 ± 8.0 s
same,Time of licking paw ± SEM (II phase),mice [5]; 30.0 mg/kg,22.4 ± 6.5 s
same,formalin test (I phase): active at,mice [5],30 mg/kg
same,IC50,hNav1.6 sodium channel; 10 Hz,20.5 µM
same,IC50,hNav1.6 sodium channel; Inactivated state,< 10 µM
same,IC50,hNav1.6 sodium channel; Tonic block,60.1 µM
same,IC50,α1 (non-selective),12 µM
same,Ki,α1 (non-selective),3.3 µM
same,% of control specific binding,α1 (non-selective); 0.01 μM,102.4%
same,% of control specific binding,α1 (non-selective); 0.1 μM,97.3%
same,% of control specific binding,α1 (non-selective); 1 μM,90.0%
same,% of control specific binding,α1 (non-selective); 10 μM,55.9%
same,% of control specific binding,α1 (non-selective); 100 μM,12.8%
same,Reaction time to painful stimulus,mice [6]; 0.062%,4.4 ± 1.0 s
same,Prolongation of the time reaction,mice [6]; 0.125%,42.9%
same,Reaction time to painful stimulus,mice [6]; 0.125%,5.0 ± 1.0 s
same,Prolongation of the time reaction,mice [6]; 0.5%,166% and 165.7%
same,Reaction time to painful stimulus,mice [6]; 0.5%,9.3 ± 0.9 s
same,Prolongation of the time reaction,mice [6]; 2.0%,323% and 322.9%
same,Reaction time to painful stimulus,mice [6]; 2.0%,14.8 ± 1.9 s
same,Reaction time to painful stimulus,mice [6]; […],7.4 ± 1.0 s
same,tail immersion test: active at,mice [6]; mice,0.5%
same,reduction of nociceptive response,"mice [7]; 5 mg/kg ip, not significant",19%
same,licking response,mice [7]; 10 mg/kg ip,42.7 ± 5.6 s
same,reduction of licking response,mice [7]; 10 mg/kg ip,38%
same,licking response,mice [7]; 30 mg/kg ip,27.7 ± 5.7 s
same,reduction of licking response,mice [7]; 30 mg/kg ip,60%
same,ED50,"mice [7]; Mus musculus, mice, ip",19 mg/kg
